Measured values published in patent US10159746B2, “Cyclodextrin complexation methods for formulating peptide proteasome inhibitors” (Onyx Therapeutics, Inc., priority 2012, dated 2018).
≈ marks a conversion by molar mass, not a printed value.

Tests used:
Format in all cases: physicochemical
[1] = Chlorohydrin degradation product (CDP) formation in lyophilized carfilzomib/SBECD product by HPLC: pH, water and sodium chloride varied (Example 2)
Description: A multivariate statistical design of experiments was conducted to assess factors controlling the level of chlorohydrin degradation product as a function of processing parameters and storage time over six months. The complexation was performed in the proportion and parameters given in Example 1, with the following modifications: (i) the complexation process was performed at 2 L batch size; (ii) the final pH of solution before vial filling was varied for purposes of the experiment from 3.0, to 4.0; (iii) sodium chloride was spiked into SBECD in some experiments to create a high sodium chloride condition; (iv) water content of the lyophilized final product in stoppered vials was produced at high and low sodium chloride conditions via early termination and stoppering of vials to create a higher residual water content condition.
The solution of complexed carfilzomib for injection bulk solution pre-lyophilization included aqueous 5 mg/mL carfilzomib, 250 mg/mL Captisol® (SBECD) and 4.86 mg/mL citric acid, pH adjusted with aqueous sodium hydroxide. Compounding of the bulk solutions for lyophilization followed the procedure detailed in Example 1 with the following manipulations to create solutions with different specific attributes: • 1. pH was adjusted to 3.0 and 4.0 • 2. Sodium chloride was spiked into the Captisol® to create a “High Chloride” condition Captisol® manufactured by Cydex, a subsidiary of Ligand, has a standard product analysis range for sodium chloride from 0.05% to 0.2% (w/v). […] 400 g of this Captisol® was required per batch for the process to be performed at 2 L scale batches of complexation processing (in same proportions and general parameters per Example 1). To create the “high chloride” condition, 0.6 g of NaCl was added to 399.4 g of Captisol® which thus mimicked what a batch containing 0.2% chloride Captisol® would be comprised of.
In order to generate two (2) moisture content conditions in the final lyophilized vials, two (2) sets of 61.8 mg/vial (of CFZ-API) samples were lyophilized. The first cycle generated the “dry” sample set of vials containing approximately 0.6% residual water per Example 1 lyophilization parameters. For the second sample set, lyophilization was terminated and vials stoppered earlier in the secondary drying phase to generate the “wet” condition vials, with residual moisture approximately 2.4% water per vial initially.
The bulk solution of complexed carfilzomib was analyzed during manufacture by High Performance Liquid Chromatography (HPLC) to accurately quantify the concentration of dissolved and complexed carfilzomib drug substance. Subsequently, additional water was added to accurately dilute the bulk complexed solution. After this dilution step, HPLC was used again to ensure a target concentration of 5.0 mg/mL was achieved. Samples of the three (3) final bulk solutions were analyzed for potency and purity confirmation testing by HPLC. […] Karl Fischer Coulometry method was used for the water content determination in the lyophilized drug product.

[2] = Compounding study: dissolved carfilzomib versus time in 25% (w/v) SBE-β-CD (Example 5); details: CFZ-API suspension in 25% (w/v) SBE-β-CD solution, aqueous with cosolvent or surfactant or cyclodextrin, thermodynamic from solid, read-out: solubilized concentration during compounding
Description: SBE-β-CD was dissolved in WFI to achieve 25% (w/v) solution. A suspension of CFZ-API in the SBE-β-CD solution was prepared by homogenization per the solubility study
API solids were added in all experiments to theoretically yield a ˜6 mg/mL final solution to mimic the commercial process
After homogenization, pH was lowered using citric acids to affect solubilization, while continuing mixing up 24 hours. Then, all preparations were adjusted to pH 3.5. Dissolved concentration as a function of time was measured by sampling, filtration, then HPLC analysis to monitor the kinetics of complexation in the slurry based process.

[3] = Slurry-based complexation/solubilization of CFZ-API in SBECD with citric acid (Example 1); details: SBECD/WFI/citric acid slurry, 2-8° C., mixed a further 24 hours
Description: In a 525 L stainless steel jacketed cooled tank controlled to 2° C.-8° C., a suspension of 2.0 kg carfilzomib-API (CFZ-API), 246 kg water for injection (WFI), and 100 kg sulfobutylether beta-cyclodextrin (SBECD) was prepared. Specifically, in the 525 L stainless steel jacketed cooled tank controlled to 2° C.-8° C., 100 kg SBECD was dissolved in 246 kg WFI. The Carfilzomib suspension was then prepared using 2.0 kg of CFZ-API. Mixing was performed using an impeller mixer to maintain suspension of the CFZ-API solids and dissolve the SBECD. In the same vessel, a probe style rotor-stator high shear mixer (homogenizer) was used as well as the low shear impeller. The high shear mixer was operated for approximately 1 hour yielding an even suspension and reduction of particle size for any larger primary particles or agglomerated API. After a suspension was achieved, 1.96 kg of citric acid was added as a 16% aqueous solution. The pH of the solution was then lowered inducing partial solubilization of the CFZ-API followed by and complexation due to the presence of SBECD. Mixing was continued for a further 24 hours with both the impeller and the high shear mixer and a dissolved concentration of CFZ-API of greater than 5.1 mg/mL was achieved. […]

## CC(C)C[C@H](NC(=O)[C@H](CCc1ccccc1)NC(=O)CN1CCOCC1)C(=O)N[C@@H](Cc1ccccc1)C(=O)N[C@@H](CC(C)C)C(=O)[C@@]1(C)CO1 [carfilzomib]
[1]; 5° C., pH 3.00, water 0.7%, sodium chloride 0.05%
  % Area of CDP after 6 months (HPLC data): 0.00 % Area
[1]; 5° C., pH 3.00, water 0.7%, sodium chloride 0.2%
  % Area of CDP after 6 months (HPLC data): 0.13 % Area
[1]; 5° C., pH 3.00, water 2%, sodium chloride 0.05%
  % Area of CDP after 6 months (HPLC data): 0.02 % Area
[1]; 5° C., pH 3.00, water 2%, sodium chloride 0.2%
  % Area of CDP after 6 months (HPLC data): 0.28 % Area
[1]; 5° C., pH 4.00, water 0.7%, sodium chloride 0.05%
  % Area of CDP after 6 months (HPLC data): 0.00 % Area
[1]; 5° C., pH 4.00, water 0.7%, sodium chloride 0.2%
  % Area of CDP after 6 months (HPLC data): 0.08 % Area
[1]; 5° C., pH 4.00, water 2%, sodium chloride 0.05%
  % Area of CDP after 6 months (HPLC data): 0.02 % Area
[1]; 5° C., pH 4.00, water 2%, sodium chloride 0.2%
  % Area of CDP after 6 months (HPLC data): 0.18 % Area
[1]; 25° C., pH 3.00, water 0.7%, sodium chloride 0.05%
  % Area of CDP after 6 months (HPLC data): 0.14 % Area
[1]; 25° C., pH 3.00, water 0.7%, sodium chloride 0.2%
  % Area of CDP after 6 months (HPLC data): 0.70 % Area
[1]; 25° C., pH 3.00, water 2%, sodium chloride 0.05%
  % Area of CDP after 6 months (HPLC data): 0.55 % Area
[1]; 25° C., pH 4.00, water 0.7%, sodium chloride 0.05%
  % Area of CDP after 6 months (HPLC data): 0.09 % Area
[1]; 25° C., pH 4.00, water 0.7%, sodium chloride 0.2%
  % Area of CDP after 6 months (HPLC data): 0.36 % Area
[1]; 25° C., pH 4.00, water 2%, sodium chloride 0.05%
  % Area of CDP after 6 months (HPLC data): 0.35 % Area
[2]; first 2 hours
  solubility at 2 h: 4500 µg/mL (≈ 6.25 mM)
[2]; slow equilibration phase, in >20 hours
  solubility: 5500 µg/mL (≈ 7.64 mM)
[3]
  dissolved concentration of CFZ-API: greater than 5.1 mg/mL
